Results: patent US12390451B2, “Small molecule inhibitor of the JAK family of kinases” (Janssen Pharmaceutica NV, priority 2021, dated 2025)
Read-outs that look alike come from different tables or passages of the source.

Legend:
[1] = Serum and colon concentrations in explant studies SS-1 and SS-2; format: in vivo, C57BL/6 mice; conditions: for concentration at 4 h: C57BL/6, mouse, po
Description: (§1) C57BL/6 mice (6 to 8 weeks old) were randomized by weight and assigned to various treatment groups for each study. Mice were dosed orally with indicated doses of compound of Formula I. At the termination of the study, blood was collected via cardiocentesis, serum and washed proximal colon was prepared for PK analysis.
The high colonic and low systemic exposure observed for compound of Formula I implicate the role for colonic drug levels as the key driver of the observed pharmacology.
Data are presented as mean±SEM; N=5/group. BLOQ, below limit of quantification.

[2] = test system: IL-22/IL-6/IFNα-induced pSTAT-3 response; test: Ex vivo mouse colon explant model (IL-22/IL-6/IFNα) after oral dosing; format: in vivo, C57BL/6 mice; conditions: for inhibition at 0.5 mg/kg: oral 0.5 mg/kg; for inhibition at 2.5 mg/kg: oral 2.5 mg/kg; for inhibition at 5 mg/kg: oral 5 mg/kg; for inhibition at 25 mg/kg: oral 25 mg/kg
Source text: To understand the potential of local, enteric-selective JAK inhibitors to inhibit STAT signaling in colon tissue, two pharmacokinetic/pharmacodynamic (PK/PD) studies were developed. The first involved the combined intraperitoneal administration of IL-12 and IL-18 in mice which induces a systemic inflammatory response resulting in activation of the JAK/STAT pathway in colonic tissue which can be monitored by robust phosphorylation of STAT3 three hours after challenge. The second PK/PD model involves the ex vivo stimulation of mouse colon tissue with a cocktail of cytokines (IL-22, IL-6, and IFNα), measuring the inhibition of STAT3 phosphorylation after oral dosing of compound of Formula I.
In addition to the IL-12/IL-18 model described above, local efficacy of compound of Formula I was further established in a mouse cytokine mixture (IL-22/IL-6/IFNα) colon explant model. A combination of IL-22, IL-6 and IFNα induced a rapid and robust pSTAT-3 response in mouse colon explants ex vivo 1 hour post challenge. This study aimed at examining the dose response and duration of action of compound of Formula I on IL 22/IL 6/IFNα-induced pSTAT-3 response in an ex vivo mouse colon explant model.
as §1
Distal colon explants (approximately 3 mm^2) were either untreated or treated with cytokines (IL 6, IL-22, IFNα at 100 ng/mL each). Following stimulation for 1 hour, tissue was snap-frozen for homogenization and assayed for pSTAT-3.

JAK1/Tyk2 = target: T1, JAK1/Tyk2 (Homo sapiens, UniProt P23458+P29597); test: IFNα-induced pSTAT-3 in human whole blood; format: cell-based; conditions: mean
T1 construct: endogenous in cells; host or cells: human whole blood
Description: Compound of Formula I presents low levels of systemic exposure after oral administration. To understand the relationship between systemic exposure and target engagement in human studies, the inhibition of cytokine-induced pSTAT-3 in human whole blood was measured with such compound. In human whole blood, compound of Formula I in a concentration-dependent manner inhibited the JAK1, JAK2, JAK3, and Tyk2 homo- and heterodimers downstream of IFNα (JAK1/Tyk2), thrombopoietin (TPO) (JAK2/JAK2), and IL-21 (JAK1/JAK3) signaling.

[3] = Serum and colonic concentrations in IL-12/IL-18 studies S-1 and S-2; format: in vivo, C57BL/6 mice; conditions: mice, mean±SEM; for concentration at 4 h / concentration at 30 min: C57BL/6, mouse, po; for concentration at 30 min: read-out: Serum 30 min post dosing
Description: C57BL/6 mice (6 to 8 weeks old) were randomized by weight and assigned to various treatment groups for each of two studies. Mice were challenged intraperitoneally with a combination of IL-12 (250 ng) and IL-18 (1 μg). To examine the effect of compound of Formula I on IL-12/IL-18-induced pSTAT-3 response, groups of mice were orally dosed with compound of Formula I 1 hour prior to IL-12/IL-18 challenge. Three hours after IL-12/IL-18 challenge, mice were euthanized with CO2 asphyxiation, blood was collected via cardiocentesis for PK analysis, and colon tissues were collected for measuring pSTAT-3 response and drug levels. Mice dosed orally with 20% 2-hydroxypropyl-β-cyclodextrin (HP-β-CD) were used as vehicle controls. Two independent studies (S-1 and S-2) were conducted to examine the effect of compound of Formula I on IL-12/IL-18-induced colonic pSTAT-3 response in mice. […] Serum levels were measured at 30 minutes and 4 hours (terminal) after dosing. […] Colon drug levels were measured 4 hours after dosing. […] Colonic exposure of compound of Formula I increased in a dose-dependent fashion. At 25 mg/kg dose, colonic exposure of compound of Formula I was 30814.5±5552.5 ng/g and 18256.5±4118.8 ng/g tissue. […] Oral dosing of compound of Formula I in mice resulted, as shown in other studies, in minimum systemic exposure and lack of consistent dose-dependent pharmacodynamic responses in the blood.
Data are presented as mean±SEM; N=3-7/group. BLOQ, below limit of quantification; min, minutes; h, hour(s).
Data are presented as mean±SEM; N=3 to 7/group. BLOQ, below limit of quantification; min, minutes; h, hour(s).

[4] = SS-1, mice, read-out: inhibition of IL-22/IL-6/IFNα-stimulated pSTAT-3 response in colon explants
[5] = SS-1, mice, read-out: inhibition of basal pSTAT-3 response in colon explants
[6] = SS-2, mice, read-out: inhibition of IL-22/IL-6/IFNα-stimulated pSTAT-3 in colon explants
[7] = SS-2, mice, read-out: inhibition of basal pSTAT-3 in colon explants

T1 sequence (P23458 whole entry): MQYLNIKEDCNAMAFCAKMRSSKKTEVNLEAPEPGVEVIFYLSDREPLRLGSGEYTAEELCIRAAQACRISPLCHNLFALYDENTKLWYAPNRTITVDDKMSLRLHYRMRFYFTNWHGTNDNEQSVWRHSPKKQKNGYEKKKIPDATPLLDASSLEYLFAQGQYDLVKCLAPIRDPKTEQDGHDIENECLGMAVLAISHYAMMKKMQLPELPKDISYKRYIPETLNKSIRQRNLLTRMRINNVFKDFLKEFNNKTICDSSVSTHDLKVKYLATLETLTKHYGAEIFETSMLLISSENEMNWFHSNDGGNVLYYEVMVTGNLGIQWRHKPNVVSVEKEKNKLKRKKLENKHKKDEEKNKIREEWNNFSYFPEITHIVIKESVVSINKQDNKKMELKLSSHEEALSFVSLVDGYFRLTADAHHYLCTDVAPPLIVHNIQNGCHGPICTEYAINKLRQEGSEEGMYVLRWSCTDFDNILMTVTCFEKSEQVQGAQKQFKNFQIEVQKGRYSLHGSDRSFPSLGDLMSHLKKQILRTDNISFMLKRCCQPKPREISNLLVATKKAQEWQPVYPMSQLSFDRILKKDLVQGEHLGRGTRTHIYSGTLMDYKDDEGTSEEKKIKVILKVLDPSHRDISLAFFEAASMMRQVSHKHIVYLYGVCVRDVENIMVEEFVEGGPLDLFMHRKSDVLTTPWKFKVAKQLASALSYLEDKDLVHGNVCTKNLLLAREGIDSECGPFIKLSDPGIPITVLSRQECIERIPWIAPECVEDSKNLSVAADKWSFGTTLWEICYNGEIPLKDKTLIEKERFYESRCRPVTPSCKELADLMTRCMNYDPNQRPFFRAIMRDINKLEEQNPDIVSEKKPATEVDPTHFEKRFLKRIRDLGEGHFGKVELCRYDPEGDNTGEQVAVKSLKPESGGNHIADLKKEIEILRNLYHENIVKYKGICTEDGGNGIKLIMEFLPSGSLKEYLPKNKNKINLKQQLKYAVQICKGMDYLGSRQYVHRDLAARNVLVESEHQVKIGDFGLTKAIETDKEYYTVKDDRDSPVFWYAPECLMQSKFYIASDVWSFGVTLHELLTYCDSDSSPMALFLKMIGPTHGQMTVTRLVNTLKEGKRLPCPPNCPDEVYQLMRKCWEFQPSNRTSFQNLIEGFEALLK
T1 sequence (P29597 whole entry): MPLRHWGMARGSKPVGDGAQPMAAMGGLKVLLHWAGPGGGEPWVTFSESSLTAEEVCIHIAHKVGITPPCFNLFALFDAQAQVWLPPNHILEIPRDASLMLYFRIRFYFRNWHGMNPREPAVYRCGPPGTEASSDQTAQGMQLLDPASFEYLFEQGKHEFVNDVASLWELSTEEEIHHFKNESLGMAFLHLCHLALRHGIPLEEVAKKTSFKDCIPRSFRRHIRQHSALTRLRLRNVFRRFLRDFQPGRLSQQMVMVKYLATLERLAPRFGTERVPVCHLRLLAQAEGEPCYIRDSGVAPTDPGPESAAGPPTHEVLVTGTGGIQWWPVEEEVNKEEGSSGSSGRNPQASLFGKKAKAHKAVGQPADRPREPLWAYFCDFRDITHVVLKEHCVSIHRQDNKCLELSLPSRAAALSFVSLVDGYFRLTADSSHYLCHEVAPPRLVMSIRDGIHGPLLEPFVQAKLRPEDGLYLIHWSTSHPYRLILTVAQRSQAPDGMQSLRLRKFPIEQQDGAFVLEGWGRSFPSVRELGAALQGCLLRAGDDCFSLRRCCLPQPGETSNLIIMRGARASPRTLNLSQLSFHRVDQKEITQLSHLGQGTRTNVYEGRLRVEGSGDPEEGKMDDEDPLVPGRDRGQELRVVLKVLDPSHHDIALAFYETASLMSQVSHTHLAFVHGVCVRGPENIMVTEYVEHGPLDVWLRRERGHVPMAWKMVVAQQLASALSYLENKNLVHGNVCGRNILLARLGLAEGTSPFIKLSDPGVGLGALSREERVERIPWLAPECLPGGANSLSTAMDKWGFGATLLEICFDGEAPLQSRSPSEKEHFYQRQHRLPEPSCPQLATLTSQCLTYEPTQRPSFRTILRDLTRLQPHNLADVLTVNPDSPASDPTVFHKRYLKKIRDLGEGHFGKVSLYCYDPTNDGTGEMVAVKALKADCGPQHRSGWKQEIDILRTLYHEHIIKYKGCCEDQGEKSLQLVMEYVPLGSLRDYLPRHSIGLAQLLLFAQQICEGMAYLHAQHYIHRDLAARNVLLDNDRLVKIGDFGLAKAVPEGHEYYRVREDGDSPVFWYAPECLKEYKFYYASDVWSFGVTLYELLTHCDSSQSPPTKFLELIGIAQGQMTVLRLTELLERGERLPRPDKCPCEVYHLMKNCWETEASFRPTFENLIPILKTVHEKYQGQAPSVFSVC
T1 sequence (P17181 28-557 partner): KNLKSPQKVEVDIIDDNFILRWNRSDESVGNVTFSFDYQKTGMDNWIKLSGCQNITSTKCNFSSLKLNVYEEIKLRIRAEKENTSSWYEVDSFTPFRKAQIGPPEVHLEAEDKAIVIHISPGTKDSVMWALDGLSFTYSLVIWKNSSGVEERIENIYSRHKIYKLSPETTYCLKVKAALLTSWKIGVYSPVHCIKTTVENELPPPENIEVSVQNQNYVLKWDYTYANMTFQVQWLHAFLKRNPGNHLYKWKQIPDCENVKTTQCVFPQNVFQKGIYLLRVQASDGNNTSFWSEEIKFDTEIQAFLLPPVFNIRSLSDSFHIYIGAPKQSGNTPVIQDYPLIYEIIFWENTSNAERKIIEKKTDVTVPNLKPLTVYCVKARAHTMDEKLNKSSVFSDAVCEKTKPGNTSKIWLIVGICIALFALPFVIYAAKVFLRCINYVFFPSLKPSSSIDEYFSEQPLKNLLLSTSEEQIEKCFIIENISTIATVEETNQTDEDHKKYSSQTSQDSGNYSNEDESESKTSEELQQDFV
T1 sequence (P48551 27-515 partner): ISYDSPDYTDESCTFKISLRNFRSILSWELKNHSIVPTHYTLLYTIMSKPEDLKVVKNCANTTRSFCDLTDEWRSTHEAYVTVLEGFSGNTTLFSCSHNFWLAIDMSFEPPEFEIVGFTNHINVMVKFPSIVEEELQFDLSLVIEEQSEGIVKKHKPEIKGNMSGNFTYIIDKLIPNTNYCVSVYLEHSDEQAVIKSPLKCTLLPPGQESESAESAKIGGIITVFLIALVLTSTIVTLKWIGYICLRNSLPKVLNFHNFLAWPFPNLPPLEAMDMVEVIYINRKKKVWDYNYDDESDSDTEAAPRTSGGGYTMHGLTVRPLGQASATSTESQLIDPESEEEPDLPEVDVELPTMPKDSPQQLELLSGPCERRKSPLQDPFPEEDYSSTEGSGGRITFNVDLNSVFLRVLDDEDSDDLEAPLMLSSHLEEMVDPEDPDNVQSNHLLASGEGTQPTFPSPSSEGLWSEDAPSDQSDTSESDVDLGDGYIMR

concentration at 4 h ([1]; colon, 0.25 mg/kg, SS-1, mice, 4 hours post oral dose 0.25 mg/kg, mean±SEM, read-out: Colon concentration): 446 ± 51.5 ng/g | concentration at 4 h ([1]; colon, 0.25 mg/kg, SS-2, mice, 4 hours post oral dose 0.25 mg/kg, mean±SEM, read-out: Colon concentration): 262 ± 30.5 ng/g | concentration at 4 h ([1]; colon, 2.5 mg/kg, SS-1, mice, 4 hours post oral dose 2.5 mg/kg, mean±SEM, read-out: Colon concentration): 2840 ± 716 ng/g | concentration at 4 h ([1]; colon, 2.5 mg/kg, SS-2, mice, 4 hours post oral dose 2.5 mg/kg, mean±SEM, read-out: Colon concentration): 1320 ± 270 ng/g | concentration at 4 h ([1]; colon, 5 mg/kg, SS-1, mice, 4 hours post oral dose 5 mg/kg, mean±SEM, read-out: Colon concentration): 4630 ± 705 ng/g | concentration at 4 h ([1]; colon, 5 mg/kg, SS-2, mice, 4 hours post oral dose 5 mg/kg, mean±SEM, read-out: Colon concentration): 4670 ± 953 ng/g | concentration at 4 h ([1]; colon, 25 mg/kg, SS-1, mice, 4 hours post oral dose 25 mg/kg, mean±SEM, read-out: Colon concentration): 27500 ± 6130 ng/g | concentration at 4 h ([1]; colon, 25 mg/kg, SS-2, mice, 4 hours post oral dose 25 mg/kg, mean±SEM, read-out: Colon concentration): 22900 ± 4150 ng/g | concentration at 4 h ([1]; serum, 5 mg/kg, SS-2, mice, 4 hours post oral dose 5 mg/kg, mean±SEM, read-out: Serum concentration): 10.3 ± 6.9 nM | concentration at 4 h ([1]; serum, 25 mg/kg, SS-1, mice, 4 hours post oral dose 25 mg/kg, mean±SEM, read-out: Serum concentration): 4.9 ± 2.1 nM | concentration at 4 h ([1]; serum, 25 mg/kg, SS-2, mice, 4 hours post oral dose 25 mg/kg, mean±SEM, read-out: Serum concentration): 6.3 ± 2.9 nM | concentration at 4 h ([1]; serum, SS-1 and SS-2, all oral doses, 4 hours post dose, read-out: systemic (serum) exposure): ≤ 10.3 nM | Serum concentration ([1]; SS-1, mice, 4 hours post oral dose 0.25 mg/kg, mean±SEM): BLOQ | Serum concentration ([1]; SS-1, mice, 4 hours post oral dose 2.5 mg/kg, mean±SEM): BLOQ | Serum concentration ([1]; SS-1, mice, 4 hours post oral dose 5 mg/kg, mean±SEM): BLOQ | Colon concentration ([1]; SS-1, mice, 4 hours post oral dose 25 mg/kg, mean±SEM, 25 mg/kg): 27488.1 ± 6128.6 ng/g | Serum concentration ([1]; SS-2, mice, 4 hours post oral dose 0.25 mg/kg, mean±SEM): BLOQ | Serum concentration ([1]; SS-2, mice, 4 hours post oral dose 2.5 mg/kg, mean±SEM): BLOQ | Colon concentration ([1]; SS-2, mice, 4 hours post oral dose 25 mg/kg, mean±SEM, 25 mg/kg): 22929.6 ± 4146.6 ng/g | IC50 (JAK1/Tyk2): 105 nM | concentration at 4 h ([3]; colon, 10 mg/kg, S-1, oral 10 mg/kg, read-out: Colon 4 h post dosing): 6600 ± 787 ng/g | concentration at 4 h ([3]; colon, 10 mg/kg, S-2, oral 10 mg/kg, read-out: Colon 4 h post dosing): 10100 ± 1300 ng/g | concentration at 4 h ([3]; colon, 25 mg/kg, S-1, oral 25 mg/kg, read-out: Colon 4 h post dosing): 30800 ± 5550 ng/g | concentration at 4 h ([3]; colon, 25 mg/kg, S-2, oral 25 mg/kg, read-out: Colon 4 h post dosing): 18300 ± 4120 ng/g | concentration at 4 h ([3]; colon, 50 mg/kg, S-1, oral 50 mg/kg, read-out: Colon 4 h post dosing): 59600 ± 11300 ng/g | concentration at 4 h ([3]; colon, 50 mg/kg, S-2, oral 50 mg/kg, read-out: Colon 4 h post dosing): 35600 ± 5560 ng/g | concentration at 30 min ([3]; serum, 10 mg/kg, S-1, oral 10 mg/kg): 7.4 ± 1.4 nM | concentration at 30 min ([3]; serum, 10 mg/kg, S-2, oral 10 mg/kg): 7 ± 0.7 nM | concentration at 30 min ([3]; serum, 25 mg/kg, S-1, oral 25 mg/kg): 21.8 ± 5.5 nM | concentration at 4 h ([3]; serum, 25 mg/kg, S-1, oral 25 mg/kg, read-out: Serum 4 h post dosing): 25 ± 20.3 nM | concentration at 30 min ([3]; serum, 25 mg/kg, S-2, oral 25 mg/kg): 70.5 ± 60.4 nM | concentration at 4 h ([3]; serum, 25 mg/kg, S-2, oral 25 mg/kg, read-out: Serum 4 h post dosing): 45.1 ± 24 nM | concentration at 30 min ([3]; serum, 50 mg/kg, S-1, oral 50 mg/kg): 122 ± 87.2 nM | concentration at 4 h ([3]; serum, 50 mg/kg, S-1, oral 50 mg/kg, read-out: Serum 4 h post dosing): 19.7 ± 8 nM | concentration at 30 min ([3]; serum, 50 mg/kg, S-2, oral 50 mg/kg): 38.8 ± 7.4 nM | concentration at 4 h ([3]; serum, 50 mg/kg, S-2, oral 50 mg/kg, read-out: Serum 4 h post dosing): 131 ± 108 nM | Serum 4 h post dosing ([3]; S-1, oral 10 mg/kg): BLOQ | Serum 30 min post dosing ([3]; S-1, oral 10 mg/kg, 10 mg/kg): 7.4 ± 1.4 nM | Colon 4 h post dosing ([3]; S-1, oral 25 mg/kg, 25 mg/kg): 30814.5 ± 5552.5 ng/g | Serum 30 min post dosing ([3]; S-1, oral 25 mg/kg, 25 mg/kg): 21.8 ± 5.5 nM | Serum 30 min post dosing ([3]; S-1, oral 50 mg/kg, 50 mg/kg): 121.7 ± 87.2 nM | Serum 4 h post dosing ([3]; S-2, oral 10 mg/kg): BLOQ | Serum 30 min post dosing ([3]; S-2, oral 10 mg/kg, 10 mg/kg): 7.0 ± 0.7 nM | Colon 4 h post dosing ([3]; S-2, oral 25 mg/kg, 25 mg/kg): 18256.5 ± 4118.8 ng/g | Serum 30 min post dosing ([3]; S-2, oral 25 mg/kg, 25 mg/kg): 70.5 ± 60.4 nM | Serum 30 min post dosing ([3]; S-2, oral 50 mg/kg, 50 mg/kg): 38.8 ± 7.4 nM
Compound: CC(C)(O)CNC(=O)Cc1nc2cnc3[nH]ccc3c2n1[C@H]1CC[C@H](CC#N)CC1 [Compound of Formula I, 2-(1-((1r,4r)-4-(Cyanomethyl)cyclohexyl)-1,6-dihydroimidazo[4,5-d]pyrrolo[2,3-b]pyridin-2-yl)-N-(2-hydroxy-2-methylpropyl)acetamide]
inhibition at 0.5 mg/kg [2, 4]: 42.7% | inhibition at 0.5 mg/kg [2, 5]: 54.3% | inhibition at 2.5 mg/kg [2, 4]: 74.9% | inhibition at 2.5 mg/kg [2, 5]: 74.4% | inhibition at 5 mg/kg [2, 4]: 83.8% | inhibition at 5 mg/kg [2, 5]: 78.6% | inhibition at 25 mg/kg [2, 4]: 93.8% | inhibition at 25 mg/kg [2, 5]: 89.5% | inhibition at 0.5 mg/kg [2, 6]: 5.5% | inhibition at 0.5 mg/kg [2, 7]: 36.7% | inhibition at 2.5 mg/kg [2, 6]: 62% | inhibition at 2.5 mg/kg [2, 7]: 66.2% | inhibition at 5 mg/kg [2, 6]: 68.1% | inhibition at 5 mg/kg [2, 7]: 71.3% | inhibition at 25 mg/kg [2, 6]: 89.8% | inhibition at 25 mg/kg [2, 7]: 83.8%
